target: T1, MMP-9 (crude enzyme solution derived from a mouse skin) (Mus musculus, UniProt P41245); assay: Gelatinase group MMPs inhibition test (gelatin zymography); type: biochemical; design: key: ⊚: The band disappeared.; ◯: The band was slightly confirmed.; Δ: The band became narrower than control.; ×: Unchanged; settings: sample solution 100 μM; gel incubated overnight; size of MMP-9 band compared with control solution
T1 construct: crude enzyme solution derived from a mouse skin; from tissue; host or cells: mouse skin
T1 sequence (P41245 108-730): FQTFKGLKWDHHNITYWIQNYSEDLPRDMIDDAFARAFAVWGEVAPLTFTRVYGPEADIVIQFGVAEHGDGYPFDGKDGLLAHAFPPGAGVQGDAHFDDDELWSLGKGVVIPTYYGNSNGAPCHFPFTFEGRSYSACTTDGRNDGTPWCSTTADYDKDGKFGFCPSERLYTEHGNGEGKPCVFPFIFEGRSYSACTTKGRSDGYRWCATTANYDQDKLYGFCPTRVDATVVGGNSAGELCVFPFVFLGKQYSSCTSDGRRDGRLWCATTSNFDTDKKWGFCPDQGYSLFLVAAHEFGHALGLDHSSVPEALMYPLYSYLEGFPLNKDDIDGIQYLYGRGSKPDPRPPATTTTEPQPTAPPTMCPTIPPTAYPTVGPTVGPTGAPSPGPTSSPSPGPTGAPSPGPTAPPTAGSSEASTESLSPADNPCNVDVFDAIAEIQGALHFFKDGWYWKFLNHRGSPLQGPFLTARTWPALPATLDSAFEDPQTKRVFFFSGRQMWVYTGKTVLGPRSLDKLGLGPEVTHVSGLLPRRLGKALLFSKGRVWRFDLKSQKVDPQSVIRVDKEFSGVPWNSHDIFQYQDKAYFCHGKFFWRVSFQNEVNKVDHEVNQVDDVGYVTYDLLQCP
Experimental: A test material was dissolved in dimethyl sulfoxide (DMSO) to the concentration of 10 mM, to prepare a stock solution. The stock solution was diluted with a measuring buffer (0.05M tris at pH 7.5 containing 0.2M NaCl and 5 mM CaCl2) to adjust the concentration to 100 μM, which was used as a sample solution. As a control solution, a solution containing no test material was similarly prepared.
(b) Gelatinase Group MMPs Inhibition Test
As a gelatinase group enzyme, MMP-9 (crude enzyme solution derived from a mouse skin) was used. The test was performed according to a gelatin zymography method (“Bio-antioxidant provitamin C”, Nobuhiko Miwa ed., p.76, 1999, Fragrance Journal, Tokyo).
That is, a gel containing gelatin in which a predetermined amount of the crude enzyme solution had been subjected to electrophoresis in advance, was incubated overnight with a sample solution or a control solution. After the gel was stained, the appearing band corresponding to MMP-9 was evaluated by a decrease when its size compared with that of a band of control solution. Evaluation criteria was as follows: • ⊚: The band disappeared. • ◯: The band was slightly confirmed. • Δ: The band became narrower than control. • ×: Unchanged.

| SMILES | MMPs Inhibition |
| --- | --- |
| O=C(Cc1ccccc1OCc1ccc(F)cc1)Nc1nc(=S)ss1 [Compound 7, 2-{2-[(4-Fluorobenzyl)oxy]phenyl}-N-(3-thioxo-3H-1,2,4-dithiazol-5-yl)acetoamide] | ◯ |
| O=C(Cc1cc(OCc2ccc(F)cc2)cc(OCc2ccc(F)cc2)c1)Nc1nc(=S)ss1 [Compound 9, 2-{3,5-Bis[(4-fluorobenzyl)oxy]phenyl}-N-(3-thioxo-3H-1,2,4-dithiazol-5-yl)acetoamide] | ◯ |
| O=C(Cc1ccc(OCc2ccc(F)cc2)cc1)Nc1nc(=S)ss1 [Compound 5, 2-{4-[(4-Fluorobenzyl)oxy]phenyl}-N-(3-thioxo-3H-1,2,4-dithiazol-5-yl)acetoamide] | ◯ |
| COc1ccc(S(=O)(=O)N(CC(=O)Nc2nc(=S)ss2)Cc2ccccc2)cc1 [Compound 1, 2-{Benzyl[(4-methoxyphenyl)sulfonyl]amino}-N-(3-thioxo-3H-1,2,4-dithiazol-5-yl) acetoamide] | ◯ |
| CC(C)=CCC/C(C)=C/COc1ccc(CC(=O)Nc2nc(=S)ss2)cc1 [Compound 2, 2-{4-[(3,7-Dimethyl-2,6-octadienyl)oxy]phenyl}-N-(3-thioxo-3H-1,2,4-dithiazol-5-yl)acetoamide] | ◯ |
| O=C(Cc1cccc(OCc2ccc(F)cc2)c1)Nc1nc(=S)ss1 [Compound 8, 2-{3-[(4-Fluorobenzyl)oxy]phenyl}-N-(3-thioxo-3H-1,2,4-dithiazol-5-yl)acetoamide] | ◯ |
| CC(C)C(C(=O)Nc1nc(=S)ss1)c1ccc(OCc2ccc(F)cc2)cc1 (stereo not shown) [Compound 12, 2-{4-[(4-Fluorobenzyl)oxy]phenyl}-3-methyl-N-(3-thioxo-3H-1,2,4-dithiazol-5-yl)butanamide] | ⊚ |

— patent US7348017B2, “Dithiazole compounds, matrix metalloprotease inhibitors and external preparations for the skin” (Shiseido Co., Ltd., priority 2001, dated 2008)
